Measurements taken from patent publication US4118561A, “7-(Substituted)-7H-pyrrolo[3,2-f]quinazoline-1,3-diamines” (priority 1977, dated 1978).
In brackets after ≈: the same amount, converted by molar mass. Where two headings read alike, the source gives them in different places.

Key:
E. coli 9637 = assay: In vitro antibacterial activity (MIC), E. coli 9637; conditions: Escherichia coli, 9637, 18 h
N. catarrhalis 8193 = assay: In vitro antibacterial activity (MIC), N. catarrhalis 8193; conditions: 18 h
S. aureus Smith = assay: In vitro antibacterial activity (MIC), S. aureus Smith; conditions: Staphylococcus aureus, 18 h
S. aureus 53-180 = assay: In vitro antibacterial activity (MIC), S. aureus 53-180; conditions: Staphylococcus aureus, 53180, 18 h
S. paratyphi 11737 = assay: In vitro antibacterial activity (MIC), S. paratyphi 11737; assay type: cell-based; conditions: Salmonella enterica, 18 h
P. vulgaris 6896 = assay: In vitro antibacterial activity (MIC), P. vulgaris 6896; conditions: Proteus vulgaris, 6896, 18 h
[1] = system: lymphocytic leukemia P-388; assay: Activity in mice against lymphocytic leukemia P-388; assay type: in vivo; conditions: Mus musculus, P388, ip, read-out: T/C
[2] = Antimalarial blood schizonticidal test in mice; assay type: in vivo, Plasmodium berghei (infected ICR/HA Swiss mice); parameters: ΔMST (increase in mean survival time): unit: days; conditions: mouse, in vivo, sc, single dose, read-out: Highest Non-Lethal Dose
How it was run: (§1)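 Single s.c. doses (peanut oil vehicle, graded levels) given 72 h after i.p. inoculation of young Swiss mice with P. berghei KBG 173 blood (4 × 10^7 parasitized cells). Activity judged by cures (alive at 60 days) or significant mean survival gain over untreated controls, without drug-related deaths.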

[3] = system: Plasmodium berghei KBG 173; assay: Antimalarial blood schizonticidal test in mice; assay type: in vivo, Plasmodium berghei (infected ICR/HA Swiss mice); parameters: ΔMST (increase in mean survival time): unit: days; conditions: for ED100 / minimal effective dose: Plasmodium berghei, sc; for ED100: read-out: Lowest Dose Curing All Mice; for minimal effective dose: read-out: Min. Curing Dose; for Cure/Treat at Min. Curing Dose: at the Min. Curing Dose
How it was run: as §1

K. pneumoniae 10031 = assay: In vitro antibacterial activity (MIC), K. pneumoniae 10031; conditions: Klebsiella pneumoniae, 10031, 18 h
[4] = infected mice, highest dose with no deaths for any reason
[5] = 1440 h, s.c., single dose, 60-day survivors
[6] = 336 h, s.c., single dose, alive on day 14 considered cured, no 60-day data

SMILES: CCOC(=O)c1ccc(Cn2ccc3c4c(N)nc(N)nc4ccc32)cc1 [Example 17]
- MIC (E. coli 9637): 7.81 µg/mL (≈ 21.6 µM)
- MIC (N. catarrhalis 8193): 0.488 µg/mL (≈ 1.35 µM)
- MIC (S. aureus Smith): 1.95 µg/mL (≈ 5.4 µM)
- MIC (S. aureus 53-180): 1.95 µg/mL (≈ 5.4 µM)
- MIC (S. paratyphi 11737): > 250 µg/mL
- MIC (P. vulgaris 6896): > 250 µg/mL
- response vs control in vivo at 10 mg/kg ([1]; mice, I.P., 10 mg/kg): 141%
- MTD [2, 4]: 80 mg/kg
- ED100 [3, 5]: 20 mg/kg
- minimal effective dose [3, 5]: 10 mg/kg
- Cure/Treat at Min. Curing Dose ([3]; s.c., 60-day survivors): 1/5
- ΔMST (increase in mean survival time) ([3]; s.c., dose 2.5 mg. per kg.): 6.0
- MIC (K. pneumoniae 10031): 1.95 µg/mL (≈ 5.4 µM)

SMILES: Nc1nc(N)c2c(ccc3c2ccn3Cc2cccc([N+](=O)[O-])c2)n1 [Example 18, 7-[(3-nitrophenyl)methyl]-7H-pyrrolo[3,2-f]quinazoline-1,3-diamine]
- MIC (E. coli 9637): 0.488 µg/mL (≈ 1.46 µM)
- MIC (N. catarrhalis 8193): 0.0152 µg/mL (≈ 0.0455 µM)
- MIC (S. aureus Smith): 0.122 µg/mL (≈ 0.365 µM)
- MIC (S. aureus 53-180): 0.061 µg/mL (≈ 0.182 µM)
- MIC (S. paratyphi 11737): 0.976 µg/mL (≈ 2.92 µM)
- MIC (P. vulgaris 6896): 3.9 µg/mL (≈ 11.7 µM)
- response vs control in vivo at 5 mg/kg ([1]; mice, I.P., 5 mg/kg): 163%
- MTD [2, 4]: 40 mg/kg
- ED100 [3, 5]: 10 mg/kg
- minimal effective dose [3, 5]: 2.5 mg/kg
- Cure/Treat at Min. Curing Dose ([3]; s.c., 60-day survivors): 3/5
- ΔMST (increase in mean survival time) ([3]; s.c., dose 2.5 mg. per kg.): 7.4
- MIC (K. pneumoniae 10031): 0.122 µg/mL (≈ 0.365 µM)

SMILES: Cc1ccc(Cn2ccc3c4c(N)nc(N)nc4ccc32)cc1 [Example 21]
- MIC (E. coli 9637): 0.976 µg/mL (≈ 3.22 µM)
- MIC (N. catarrhalis 8193): 0.0152 µg/mL (≈ 0.0501 µM)
- MIC (S. aureus Smith): 0.976 µg/mL (≈ 3.22 µM)
- MIC (S. aureus 53-180): 0.488 µg/mL (≈ 1.61 µM)
- MIC (S. paratyphi 11737): 1.95 µg/mL (≈ 6.43 µM)
- MIC (P. vulgaris 6896): 1.95 µg/mL (≈ 6.43 µM)
- response vs control in vivo at 10 mg/kg [1]: 138%
- MTD [2, 4]: 160 mg/kg
- ED100 [3, 5]: 20 mg/kg
- minimal effective dose [3, 5]: 10 mg/kg
- Cure/Treat at Min. Curing Dose ([3]; s.c., 60-day survivors): 2/5
- ΔMST (increase in mean survival time) ([3]; s.c., dose 5 mg. per kg.): 7.5
- MIC (K. pneumoniae 10031): 0.122 µg/mL (≈ 0.402 µM)

SMILES: Cc1ccc(Cn2ccc3c4c(N)nc(N)nc4ccc32)cc1C [Example 25]
- MIC (E. coli 9637): 1.95 µg/mL (≈ 6.14 µM)
- MIC (N. catarrhalis 8193): 0.122 µg/mL (≈ 0.384 µM)
- MIC (S. aureus Smith): 1.95 µg/mL (≈ 6.14 µM)
- MIC (S. aureus 53-180): 0.976 µg/mL (≈ 3.08 µM)
- MIC (S. paratyphi 11737): 31.3 µg/mL (≈ 98.6 µM)
- MIC (P. vulgaris 6896): 62.5 µg/mL (≈ 197 µM)
- response vs control in vivo at 10 mg/kg ([1]; mice, I.P., 10 mg/kg): 139%
- MTD ([2]; alive on day 14 considered cured, no 60-day data): 80 mg/kg
- ED100 [3, 6]: 10 mg/kg
- minimal effective dose [3, 6]: 5 mg/kg
- Cure/Treat at Min. Curing Dose ([3]; s.c., alive on day 14 considered cured): 2/5
- ΔMST (increase in mean survival time) ([3]; s.c., dose 2.5 mg. per kg., alive on day 14 considered cured, no 60-day data): 6.5
- MIC (K. pneumoniae 10031): 0.488 µg/mL (≈ 1.54 µM)

SMILES: COc1ccc(Cn2ccc3c4c(N)nc(N)nc4ccc32)cc1OC [Example 37]
- MIC (E. coli 9637): 0.488 µg/mL (≈ 1.4 µM)
- MIC (N. catarrhalis 8193): 0.0152 µg/mL (≈ 0.0435 µM)
- MIC (S. aureus Smith): 0.244 µg/mL (≈ 0.698 µM)
- MIC (S. aureus 53-180): 0.122 µg/mL (≈ 0.349 µM)
- MIC (S. paratyphi 11737): 1.95 µg/mL (≈ 5.58 µM)
- MIC (P. vulgaris 6896): 1.95 µg/mL (≈ 5.58 µM)
- response vs control in vivo at 10 mg/kg ([1]; mice, I.P., 10 mg/kg): 174%
- MTD [2, 4]: 80 mg/kg
- ED100 [3, 5]: 20 mg/kg
- minimal effective dose [3, 5]: 10 mg/kg
- Cure/Treat at Min. Curing Dose ([3]; s.c., 60-day survivors): 1/5
- ΔMST (increase in mean survival time) ([3]; s.c., dose 2.5 mg. per kg.): 6.9
- MIC (K. pneumoniae 10031): 0.061 µg/mL (≈ 0.175 µM)

SMILES: COc1cc(Cn2ccc3c4c(N)nc(N)nc4ccc32)cc(OC)c1OC [Example 39]
- MIC (E. coli 9637): 0.976 µg/mL (≈ 2.57 µM)
- MIC (N. catarrhalis 8193): 0.0152 µg/mL (≈ 0.0401 µM)
- MIC (S. aureus Smith): 0.122 µg/mL (≈ 0.322 µM)
- MIC (S. aureus 53-180): 0.061 µg/mL (≈ 0.161 µM)
- MIC (S. paratyphi 11737): 3.9 µg/mL (≈ 10.3 µM)
- MIC (P. vulgaris 6896): 7.81 µg/mL (≈ 20.6 µM)
- response vs control in vivo at 10 mg/kg [1]: 163%
- MTD [2, 4]: 160 mg/kg
- ED100 ([3]; 1440 h): 160 mg/kg
- minimal effective dose ([3]; 1440 h): 40 mg/kg
- Cure/Treat at Min. Curing Dose ([3]; s.c., 60-day survivors): 2/5
- ΔMST (increase in mean survival time) ([3]; s.c., dose 20 mg. per kg.): 7.1
- MIC (K. pneumoniae 10031): 0.122 µg/mL (≈ 0.322 µM)
